Test results from US20030032674A1, “Use of unsaturated fatty acids to treat severe inflammatory diseases” (priority 2001, published 2003).

How the values were obtained:
COX-2 promoter = COX-2 promoter luciferase reporter gene assay, transiently transfected RAW 264.7 cells; type: cell-based, murine
Text: Plasmids and DNA Constructs—All plasmids and constructs were obtained or made as reported in either S. H. Rhee and D. Hwang, “Murine TOLL-like receptor 4 confers lipopolysaccaride responsiveness as determined by activation of NFκB and expression of the inducible cyclooxygenase,” Journal of Biological Chemistry, vol. 275, pp. 34035-34040 (2000); and J. Y. Lee et al., “Saturated fatty acids, but not unsaturated fatty acids, induce the expression of cyclooxygenase-2 mediated through TOLL-like receptor 4,” Journal of Biological Chemistry, vol. 276, pp. 16683-16689 (2001). Briefly, the luciferase reporter plasmids (pGL2) containing the promoter region of the murine COX-2 gene (−3201/+93 or −1017/+93) were provided by David Dewitt (Michigan State University, East Lansing, Mich.). To prepare the wild-type COX-2 promoter fragment, polymerase chain reaction (PCR) was performed with the primers named Kpn-COX2-For and Hind-COX2-Rev using the murine COX-2 (−1017/+93) luciferase reporter plasmid as a template. To prepare the mutant COX-2 promoter fragment containing mutated NFκB site, Kpn-COX2-Fmut and Hind-COX2-Rev were used as primers. Each PCR fragment was inserted into the KpnI and HindIII sites of pGL2 to generate the wild-type or mutant COX-2 (−410/+86) luciferase reporter constructs, respectively. Sequences for wild-type NFκB site and the primers were used as reported elsewhere. (See Lee et al., 2001). The 2×NFκB-luciferase reporter construct was a gift from Frank Mercurio (Signal Pharmaceuticals, San Diego, Calif.). HSP70-β-galactosidase reporter plasmid was a gift from Robert Modlin (University of California, Los Angeles, Calif.). The expression plasmids for a constitutively active form of TLR4 (DTLR4) and a dominant-negative mutant, DTLR4 (P712H) were prepared as previously described. See S. H. Rhee et al., 2000. The expression plasmid of the wild-type NFκB-inducing kinase (NIK), pRK-NIK(wt) was a gift from Mike Rothe (Tularik, South San Francisco, Calif.). The dominant-negative mutant of inhibitor kB (pCMV4-IkBa(DN)) was provided by Dean Ballard (Vanderbilt University, Nashville, Tenn.). 4×NFκB-luciferase reporter construct was purchased from Clontech (Palo Alto, Calif.) and used for transient transfection. Heat shock protein 70 (HSP70)-β-galactosidase reporter plasmid was from Robert Modlin (University of Calif., Los Angeles, Calif.). The expression plasmids for a wild-type TLR2 and a dominant-negative mutant [TLR2 (P681H)] were from C. B. Wilson (University of Washington, Seattle, Wash.). Constitutively active chimeric CD4-TLR4 was obtained from C. A. Janeway, Jr. (Yale University, New Haven, Conn.). The constitutively active form of MyD88 (MyD88(ΔToll)) and the dominant-negative mutant, MyD88(ΔDD) were kindly provided by Jurg Tschopp (University of Lausanne, Switzerland). The dominant-negative mutant of mouse PPARg [pCMX-PPARg(L466A/L467A)] was a gift from Ira Schulman (Ligand Pharmaceuticals, San Diego, Calif.). All DNA constructs were prepared in large scale using the EndoFree Plasmid Maxi kit (Qiagen, Chatsworth, Calif.) for transfection.
Transient transfection and luciferase assay—These procedures were performed as described in S. H. Rhee et al., “Murine TOLL-like receptor 4 confers lipopolysaccharide responsiveness as determined by activation of NFκB and expression of the inducible cyclooxygenase,” J. Biol. Chem., vol. 275, pp. 34035-34040 (2000); and J. H. Paik et al., “Two opposing effects of non-steroidal anti-inflammatory drugs on the expression of the inducible cyclooxygenase, Mediation through different signaling pathways,” J. Biol. Chem., vol. 275, pp. 28173-28179 (2000). Briefly, RAW 264.7 cells were plated in 6-well plates (5×10^5 cells/well) and transfected with luciferase reporter plasmids and HSP70-β-galactosidase plasmid as an internal control using SuperFect transfect reagent (Quiagen) according to the manufacturer's instructions. […]

COX-2 = molecular target: T1, COX-2 (Ovis aries, UniProt P79208); details: cited from earlier work
T1 sequence (P79208 17-603): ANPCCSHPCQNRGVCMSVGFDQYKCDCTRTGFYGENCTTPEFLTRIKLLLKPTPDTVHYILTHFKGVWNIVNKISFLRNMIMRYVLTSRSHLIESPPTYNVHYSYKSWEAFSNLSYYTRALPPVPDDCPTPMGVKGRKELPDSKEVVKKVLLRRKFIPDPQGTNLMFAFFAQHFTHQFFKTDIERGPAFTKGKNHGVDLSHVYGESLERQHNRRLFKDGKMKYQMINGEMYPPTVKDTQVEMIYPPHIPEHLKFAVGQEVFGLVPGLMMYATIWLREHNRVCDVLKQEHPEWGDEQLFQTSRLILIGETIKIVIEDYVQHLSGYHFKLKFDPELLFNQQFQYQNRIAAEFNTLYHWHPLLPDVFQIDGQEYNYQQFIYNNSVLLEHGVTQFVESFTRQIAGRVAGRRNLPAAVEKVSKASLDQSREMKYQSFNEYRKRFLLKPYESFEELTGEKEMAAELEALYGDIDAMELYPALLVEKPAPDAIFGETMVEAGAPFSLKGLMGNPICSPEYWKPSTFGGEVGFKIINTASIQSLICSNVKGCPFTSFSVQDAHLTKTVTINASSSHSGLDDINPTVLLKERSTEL

COX-2 expression [1] = test: COX-2 immunoblot (Western blot) in RAW 264.7 cells; type: cell-based, murine; details: RAW 264.7; 75 μM fatty acid
Method: (§1) Cell culture—RAW 264.7 cells (a murine macrophage-like cell line, ATCC TIB-71), 293T cells (a human embryonic kidney cell line, provided by Sam Lee, Beth Israel Hospital. Boston, Mass.), and HT-29 cells (a human colon adenocarcinoma cell line, ATCC HTB-38) were cultured in Dulbecco's modified Eagle's medium (DMEM) containing 10% (v/v) heat-inactivated fetal bovine serum (FBS, Intergen) and 100 units/ml Penicillin and […] Streptomycin (GIBCO-BRL) at 37° C. in a 5% CO2/air environment. Cells (2×10^6) were plated in 60-mm dishes and cultured for an additional 18 hours to allow the number of cells to approximately double. Cells were maintained in serum-poor (0.25% FBS) medium for another 18 hours prior to the treatment with indicated reagents.
Preparation of fatty acids-albumin complexes—All fatty acids were solubilized in ethanol, and then combined with fatty acid-free and low-endotoxin BSA at a molar ratio of 10:1 (fatty acid: albumin) in serum-poor medium (0.25% FBS). Fatty acids-albumin complex solution was freshly prepared prior to each experiment.
Sodium dodecyl sulfate-polyacrylamide gel electrophoresis (SDS-PAGE) and immunoblotting—These procedures were performed as previously described in D. Hwang et al., “Expression of mitogen-inducible cyclooxygenase induced by lipopolysaccharide: mediation through both mitogen-activated protein kinase and NF-kappaB signaling pathways in macrophages,” Biochem. Pharmacol., vol. 54, pp. 87-96 (1997). Briefly, solubilized proteins were subjected to 8% SDS-PAGE for COX-2, iNOS, IL- 1α and GAPDH immunoblot analyses. Following electrophoresis, the gel was transferred to a PVDF membrane and the membrane was blocked to prevent non-specific binding of antibodies in TBS-T [20 mM Tris HCl, 137 mM NaCl, 0.05% (v/v) Tween 20, pH 7.6] containing 5% non-fat dried milk (Carnation). Immunoblotting was performed using respective polyclonal antibodies followed by incubation with anti-rabbit IgG coupled to horseradish peroxidase. The membrane was exposed on an X-ray film (Kodak) using ECL western blot detection reagents (Amersham).
After 11 h, cell lysates were analyzed by COX-2, iNOS, IL-1α, or GAPDH immunoblot using a Western blot analysis.
The cell lysates were analyzed by COX-2 or GAPDH immunoblot.
RAW 264.7 cells were pretested with various concentrations (5, 10, 20, and 50 μM) of docosahexaenoic acid (C22:6n-3) for 3 hours, and then stimulated with LPS (100 ng/ml) for 8 hours and analyzed by COX-2, iNOS, IL-1 a or GAPDH immunoblot.
Cells stably transfected with NFκB(5×) or COX-2 promoter reporter genes were pretreated with various concentrations of each fatty acid for 3 hrs. Cells were then treated with LPS (200 ng/ml). After 8 hrs, cell lysates were prepared and luciferase activities were determined. Data are expressed as a percentage of LPS treatment alone. The results for NFκB and COX-2 expression are given in FIGS. 8A and 8B, respectively. The values are mean±SEM (n=3) of RLA, relative luciferase activity. In FIG. 8C, the cells were pretreated with DHA (20 μM) or C12:0 (75 μM) for 3 hrs and further stimulated with LPS (200 ng/ml for DHA; 1 ng/ml for C12:0). After 8 hr, cell lysates were analyzed by COX-2 and actin immunoblotting.

MyD88(CA) = test: NFκB reporter in 293T cells transfected with constitutively active MyD88; type: cell-based, human
Text: Plasmids and DNA Constructs—All plasmids and constructs were obtained or made as reported in either S. H. Rhee and D. Hwang, “Murine TOLL-like receptor 4 confers lipopolysaccaride responsiveness as determined by activation of NFκB and expression of the inducible cyclooxygenase,” Journal of Biological Chemistry, vol. 275, pp. 34035-34040 (2000); and J. Y. Lee et al., “Saturated fatty acids, but not unsaturated fatty acids, induce the expression of cyclooxygenase-2 mediated through TOLL-like receptor 4,” Journal of Biological Chemistry, vol. 276, pp. 16683-16689 (2001). Briefly, the luciferase reporter plasmids (pGL2) containing the promoter region of the murine COX-2 gene (−3201/+93 or −1017/+93) were provided by David Dewitt (Michigan State University, East Lansing, Mich.). To prepare the wild-type COX-2 promoter fragment, polymerase chain reaction (PCR) was performed with the primers named Kpn-COX2-For and Hind-COX2-Rev using the murine COX-2 (−1017/+93) luciferase reporter plasmid as a template. To prepare the mutant COX-2 promoter fragment containing mutated NFκB site, Kpn-COX2-Fmut and Hind-COX2-Rev were used as primers. Each PCR fragment was inserted into the KpnI and HindIII sites of pGL2 to generate the wild-type or mutant COX-2 (−410/+86) luciferase reporter constructs, respectively. Sequences for wild-type NFκB site and the primers were used as reported elsewhere. […]

COX-2 expression [2] = test: COX-2 immunoblot in TNFα-treated HT-29 colon cancer cells; type: cell-based, human; details: pretreated 3 hours, TNFα 20 ng/ml 8 hours
Method: as §1
Sodium dodecyl sulfate-polyacrylamide gel electrophoresis (SDS-PAGE) and immunoblotting—These procedures were performed as previously described in D. Hwang et al., “Expression of mitogen-inducible cyclooxygenase induced by lipopolysaccharide: mediation through both mitogen-activated protein kinase and NF-kappaB signaling pathways in macrophages,” Biochem. Pharmacol., vol. 54, pp. 87-96 (1997). […]
Colon cancer cells (HT-29) were pretested with various concentrations of docosahexaenoic acid (C22:6n-3) for 3 hours and then treated with TNFα (20 ng/ml) for 8 hours. Cell lysates were analyzed by COX-2 and GAPDH immunoblot.

TLR2 = molecular target: T2, TLR2 (Homo sapiens, UniProt O60603); test: NFκB reporter in TLR2-transfected 293T cells; type: cell-based; details: PamCAG 1 μg/ml, 18 hr
T2 construct: expressed in transfected cells; host or cells: 293T (stated not to express TLR2)
Text: Plasmids and DNA Constructs—All plasmids and constructs were obtained or made as reported in either S. H. Rhee and D. Hwang, “Murine TOLL-like receptor 4 confers lipopolysaccaride responsiveness as determined by activation of NFκB and expression of the inducible cyclooxygenase,” Journal of Biological Chemistry, vol. 275, pp. 34035-34040 (2000); and J. Y. Lee et al., “Saturated fatty acids, but not unsaturated fatty acids, induce the expression of cyclooxygenase-2 mediated through TOLL-like receptor 4,” Journal of Biological Chemistry, vol. 276, pp. 16683-16689 (2001). Briefly, the luciferase reporter plasmids (pGL2) containing the promoter region of the murine COX-2 gene (−3201/+93 or −1017/+93) were provided by David Dewitt (Michigan State University, East Lansing, Mich.). To prepare the wild-type COX-2 promoter fragment, polymerase chain reaction (PCR) was performed with the primers named Kpn-COX2-For and Hind-COX2-Rev using the murine COX-2 (−1017/+93) luciferase reporter plasmid as a template. To prepare the mutant COX-2 promoter fragment containing mutated NFκB site, Kpn-COX2-Fmut and Hind-COX2-Rev were used as primers. […]
Acylation by saturated fatty acids of bacterial lipopeptides is also required for the activation of TLR2. […] After 18 hr, luciferase activities were determined. […]

NFκB = NFκB luciferase reporter gene assay, transiently transfected RAW 264.7 cells; type: cell-based, murine; details: PamCAG 1 μg/ml, 18 hr

T2 sequence (O60603 21-784, species assumed): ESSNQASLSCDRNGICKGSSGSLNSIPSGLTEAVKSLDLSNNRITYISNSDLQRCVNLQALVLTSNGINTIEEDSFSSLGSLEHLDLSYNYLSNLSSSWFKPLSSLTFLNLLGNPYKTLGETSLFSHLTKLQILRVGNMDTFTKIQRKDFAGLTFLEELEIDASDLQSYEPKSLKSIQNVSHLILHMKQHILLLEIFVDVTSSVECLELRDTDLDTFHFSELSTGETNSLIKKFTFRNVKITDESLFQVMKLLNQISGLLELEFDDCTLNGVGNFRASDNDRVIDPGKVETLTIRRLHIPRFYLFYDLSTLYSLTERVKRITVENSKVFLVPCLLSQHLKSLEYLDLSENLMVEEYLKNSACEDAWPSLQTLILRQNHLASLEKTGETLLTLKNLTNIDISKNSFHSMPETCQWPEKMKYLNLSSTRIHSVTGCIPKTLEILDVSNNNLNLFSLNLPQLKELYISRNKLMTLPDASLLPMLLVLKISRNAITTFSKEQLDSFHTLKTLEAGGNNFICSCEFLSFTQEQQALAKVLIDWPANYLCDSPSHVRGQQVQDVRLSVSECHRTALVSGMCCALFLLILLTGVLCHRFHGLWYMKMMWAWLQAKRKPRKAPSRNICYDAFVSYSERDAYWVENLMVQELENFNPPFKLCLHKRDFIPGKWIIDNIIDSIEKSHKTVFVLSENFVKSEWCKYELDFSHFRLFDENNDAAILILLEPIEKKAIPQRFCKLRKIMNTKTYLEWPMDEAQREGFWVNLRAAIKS

| Compound | effect on COX-2 (inhibition) (COX-2) | COX-2 expression induced by fatty acid (immunoblot) (COX-2 expression [1]) | further results |
| --- | --- | --- | --- |
| CCCCCCCCCCCCCCCC(=O)O [palmitic acid] | No effect | – | COX-2 expression induced by saturated fatty acids (relative luciferase activity) (COX-2 promoter; saturated fatty acids C8:0-C18:0, 75 μM each, 24 hr): most potent in inducing COX-2 expression |
| CCCCCC/C=C/C=C\CCCCCCCC(=O)O [conjugated linoleic acid, 9(Z), 11(E)-octadecadienoic acid] | – | unable to induce COX-2 expression | – |
| CCCCC/C=C\C/C=C\CCCCCCCC(=O)O [linoleic acid] | not as effective | unable to induce COX-2 expression | – |
| CCCCC/C=C\C/C=C\C/C=C\C/C=C\CCCC(=O)O [arachidonic acid] | – | unable to induce COX-2 expression | – |
| CC/C=C\C/C=C\C/C=C\CCCCCCCC(=O)O [α-LA, α-linolenic acid] | Inhibitory effects | – | – |
| CCCCCCCCCCCCCCC(=O)O [pentadecanoic acid] | No effect | – | – |
| CCCCCCCCCCCCCCCCCC(=O)O [stearic acid] | No effect | – | – |
| CCCCCCCCCCCCCC(=O)O [myristic acid] | No effect | – | – |
| CC/C=C\C/C=C\C/C=C\C/C=C\C/C=C\C/C=C\CCC(=O)O [docosahexaenoic acid] | – | – | effect on NFκB activation induced by MyD88 (MyD88(CA)): does not inhibit; effect on TNFα-induced COX-2 expression (immunoblot) (COX-2 expression [2]): failed to inhibit |
| palmitoyl-Cys((RS)-2,3-di(palmitoyloxy)-propyl)-Ala-Gly-OH [PamCAG] | – | – | expression of COX-2 (endogenous TLR2) (COX-2 promoter; RAW 264.7, PamCAG 1 μg/ml, 18 hr): induced; TLR2 activation as determined by NFκB activation (TLR2): activated TLR2; NFκB activation (endogenous TLR2) (NFκB): induced |
| CCCCCCCC/C=C\CCCCCCCC(=O)O [oleic acid] | no effect | unable to induce COX-2 expression | – |
